Experimental data as given in patent US12059471B2, “Complex” (UNITED IMMUNITY, CO., LTD., priority 2020, dated 2024).
In the oligonucleotide strings, read from the 5' end, every base follows the letter of its sugar. An asterisk marks phosphorothioate; unmarked linkages are phosphodiester. Other units and linkages are bracketed, terminal groups are in braces. A string of capitals states the bases alone. {Chol-TEG} = cholesterol attached through a triethylene glycol linker; d = 2'-deoxy (DNA)

Test: Complexation evaluation by size exclusion chromatography (SEC/HPLC)
Format: physicochemical
Conditions: Chol-CpG 20 uM, SEC, UV 260 nm, PBS
Description: As complexation evaluation of the Chol-CpG (K3)/CHP nanogel complex sample prepared in Test Example 1-5, size exclusion chromatography (SEC) was carried out. The conditions were as follows. Column: G3000SWXL (Tosoh Corporation), 7.8 mm×150 mm, detector: UV (260 nm), column detection temperature: 35° C., injection amount: 20 uL, flow rate: 0.5 mL/min, eluent: PBS (pH: 7.4). Using PBS as an eluent, the eluate was detected at 260 nm, which was an absorption wavelength specific to CpG, which was a nucleic acid adjuvant.
As the complexation evaluation of the Chol-CpG (D35)/CHP nanogel complex sample prepared in Test Example 2-3, size exclusion chromatography (SEC) was carried out in the same manner as in Test Example 1-6.

Substance: Chol-CpG (D35): Cholesterol linked to 5′-end of D35 CpG oligonucleotide (SEQ ID NO 2) through a triethylene glycol linker (DNA {Chol-TEG}-dG*dGdTdGdCdAdTdCdGdAdTdGdCdAdGdGdGdG*dG*dG)
- complexed ratio with the nanogel (CHP nanogel 40 uM, molar ratio nanogel:Chol-CpG 2:1): ~100%
- complexed ratio with the nanogel (molar ratio nanogel:Chol-CpG 1:1): about 90%
